Values of other authors in patent US20160199437A1, “THERAPEUTIC COMPOSITIONS INCLUDING IRON CHELATORS AND USES THEREOF” (priority 2015, published 2016).

System: several mammalian cell types
Conditions: energy-independent manner; cited from earlier work

## 2′,6′-Dmt-D-Arg-Phe-Lys-NH2
  penetration of the plasma membrane: readily penetrates the plasma membrane
